From US20120070377A1, “COMPOUNDS AND BIOLOGICAL MATERIALS AND USES THEREOF” (priority 2009, published 2012) come the findings set out here.

Data set [1] concerns SKOV3 tumours. Briefly: PDT therapy in SKOV3 tumour mice. The data set is classed as in vivo, BALB/c nude mice. The procedure:
(§1) Female BALB/c nude mice (aged 6-8 weeks old) were implanted with 10^7 SKOV3 tumour cells mixed in 0.1 ml of ice-cold matrigel subcutaneously and the tumours were allowed to grow for 3-6 weeks as xenografts. Mice were maintained in IVC cages (individually-vented cages) in a clean room. Samples were injected in a volume of 0.1 ml, intravenously via the lateral tail vein and the mice were maintained in low light with full food and water (irradiated). At various time points (1-24 hr), mice were culled by cardiac puncture under terminal anesthesia and blood and tissues collected. All the tissues were counted for radioactivity by gamma counting and weighed.
Tumours were set up as described above and injected (iv into the mouse tail vein) with 0.2 ml of free PPa-PEG1 (0.1 mg=33 micromolar concentration) PS on day 1 and day 4. Based on the tumour uptake (see FIG. 10), an HPD laser was used to illuminate the tumours for 20 minutes at 0.5 W after 4 hrs. The mice were anaesthetized beforehand. Laser treatment followed each drug cycle. The tumours were followed for 3 weeks and the % increase in tumour size was plotted (day 0=100%) (see FIG. 12).
Tumours (groups of 6 mice) were set up as described above and injected (iv into the mouse tail vein) with 0.2 ml of C6-PPa-PEG PIC or free PPa-PEG1 PS (1 mg/ml PIC=33 micomolar concentration scFv or 330 micromolar PPa-PEG) on day 1 and day 4. […]

Data set [2] deals with SKOV3. Kind of data set: In vitro phototoxicity (MTS cell titre assay after 670 nm laser light), Example 5. The data set is classed as cell-based, human. The following applies: Homo sapiens, SK-OV-3; free photosensitisers; 2 hrs incubation, 670 nm laser 0.5 W 10 s, MTS after 48 h. As for the experimental part:
(§2) Two different human-derived tumour cell lines: SKOV3 and KB were obtained from the European Collection of Cell Cultures (ECACC) and cultured in Dulbecco's modified Eagle's medium (DMEM) with 10% foetal bovine serum, penicillin and streptomycin antibiotics (1%) and passaged when 70-90% confluent in 75 cm^2 flasks. The cells were maintained at 37° C. in a humidified 5% CO2 atmosphere.
(§3) Cells were trypsinised and seeded at 2×10^3 cells/well for KB and 3×10^3 cells/well for SKOV3 into 96-well plates and incubated over two nights for KB and overnight for SKOV3 at 37° C. and 5% CO2. The cells were then washed once in phenol red free DMEM and appropriately diluted photosensitiser solution or photo-immunoconjugate (in DMEM, 2% DMSO) was added to the appropriate wells under subdued lighting. DMEM or Triton X-100 (1%) were added to control wells. After 2 hrs incubation in the dark at 37° C., 5% CO2, cells were washed three times with PBS and 100 μl of DMEM was added to each well.
(§4) Wells were exposed to light from a High Powered-Devices 670 nm laser used at 0.5 W for 10 s. Controls included wells with photosensitiser added and no exposure to light, or DMEM added and exposure to light as well as Triton X-100 (1%) with or without light exposure. Cells that had no photosensitiser added and no exposure to light were included as overall controls. Cells were incubated in the dark at 37° C., 5% CO2 for 48 h after which time, a cell titre assay was performed according to the manufacturer's instructions. The Promega Cell Titre-96 system was used which involves the conversion by live cells of a tetrazolium compound (MTS) into a formazan dye which is measurable by its absorbance at 490 nm.

In data set [3] the test system is KB. The description is as above. The note with it: Homo sapiens, KB; free photosensitisers; 2 hrs incubation, 670 nm laser 0.5 W 10 s, MTS after 48 h. The data set is classed as cell-based, human. As for the experimental part:
as §2, §3, §4

Data set [4] concerns SKOV3 tumour. Briefly: Tumour uptake and tumour:blood ratio of radiolabelled photosensitisers and PICs. The data set is classed as in vivo, BALB/c nude mice. The following applies: mouse, in vivo. As for the experimental part:
as §1
The PS (PPa and PPa-PEG) were chemically coupled to C6 scFv, radiolabelled with iodogen as before, but dialysed against 3×5 L of PBS to remove the free iodine and injected into BALB/c nude mice with SKOV3 tumours as above. Tissues were dissected and counted as above.
The tumours were counted for radioactivity and expressed as % of the injected dose/g of tumour tissue (FIG. 10).
The percentage PS in the tumour was divided by the percentage in the blood (gram for gram) to give a targeting or tumour:blood ratio (the higher the better). This plotted in FIG. 11. A high tumour:blood ratio means that there is more in the tumour compared to the blood (and other tissues). This is a function of tumour uptake and blood clearance (see FIGS. 9 and 10).

On to `CCC1=C(C)c2cc3[nH]c(c(C)c3CC)c(C#CCCCC(=O)ON3C(=O)CCC3=O)c3nc(c4c5[nH]c(cc1n2)c(C)c5C(=O)C4)[C@@H](CCC(=O)OCc1cc(OCCOCCOCCOC)c(OCCOCCOCCOC)c(OCCOCCOCCOC)c1)[C@@H]3C` [compound 11, Meso 5-Ethynylhexanoyl succinimido ester pyropheophorbide a-3,4,5-(triethylene glycolmonomethylether) benzyl ester], for which the “tumour regression compared to untreated (Saline) controls” value in data set [1] (C6 PPa-PEG therapy: 0.2 ml iv day 1 and day 4, 1 mg/ml PIC or 0.5 mg/ml free PS, laser 20 minutes 0.5 W after 4 hrs, followed 6 weeks) is on record as “no significant tumour regression”; in data set [1] (PPa-PEG only therapy: 0.2 ml iv (0.1 mg) day 1 and day 4, laser 20 minutes 0.5 W after 4 hrs, followed 3 weeks), “no significant tumour regression”. The IC50 (as a rule, the midpoint of a concentration-inhibition curve) in data set [2] was determined as 1.1 µM; in data set [3] it was 1.2 ± 0.5 µM. For the same compound, in data set [4], the “tumour accumulation relative to the level of PPa” value is on record as “about ⅓”.
